Measurements published in ChEMBL document CHEMBL3991601, “The target landscape of clinical kinase drugs” (Science, 2017).
Calls of active or inactive are those of the source. For most assays here, no stated cut-off is given here; in the data, actives have a measured Kd and inactives only a lower limit.

Key:
[1] = target: Cyclin-dependent kinase 4 (Homo sapiens, UniProt P11802)
[2] = target: Ribosomal protein S6 kinase alpha-1 (Homo sapiens, UniProt Q15418)
[3] = target: Protein kinase C delta type (Homo sapiens, UniProt Q05655)
[4] = target: T1, AarF domain-containing protein kinase 1 (Homo sapiens, UniProt Q86TW2)
T1 sequence (Q86TW2 whole entry): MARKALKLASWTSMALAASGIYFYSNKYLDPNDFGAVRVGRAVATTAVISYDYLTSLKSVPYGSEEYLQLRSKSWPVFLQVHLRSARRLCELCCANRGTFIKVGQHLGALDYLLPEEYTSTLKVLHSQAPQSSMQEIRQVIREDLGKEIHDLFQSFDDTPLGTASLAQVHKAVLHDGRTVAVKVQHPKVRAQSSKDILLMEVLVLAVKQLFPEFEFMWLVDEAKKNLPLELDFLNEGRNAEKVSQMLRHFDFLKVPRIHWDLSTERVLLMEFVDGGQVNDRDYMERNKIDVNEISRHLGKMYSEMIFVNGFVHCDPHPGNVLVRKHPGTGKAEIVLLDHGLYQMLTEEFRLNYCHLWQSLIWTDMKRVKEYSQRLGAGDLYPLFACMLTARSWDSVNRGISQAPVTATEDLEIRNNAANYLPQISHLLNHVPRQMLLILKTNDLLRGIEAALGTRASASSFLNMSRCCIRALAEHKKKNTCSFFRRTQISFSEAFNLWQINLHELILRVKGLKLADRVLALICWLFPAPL

[5] = target: T2, Serine/threonine-protein kinase 4 (Homo sapiens, UniProt Q13043)
T2 sequence (Q13043 whole entry): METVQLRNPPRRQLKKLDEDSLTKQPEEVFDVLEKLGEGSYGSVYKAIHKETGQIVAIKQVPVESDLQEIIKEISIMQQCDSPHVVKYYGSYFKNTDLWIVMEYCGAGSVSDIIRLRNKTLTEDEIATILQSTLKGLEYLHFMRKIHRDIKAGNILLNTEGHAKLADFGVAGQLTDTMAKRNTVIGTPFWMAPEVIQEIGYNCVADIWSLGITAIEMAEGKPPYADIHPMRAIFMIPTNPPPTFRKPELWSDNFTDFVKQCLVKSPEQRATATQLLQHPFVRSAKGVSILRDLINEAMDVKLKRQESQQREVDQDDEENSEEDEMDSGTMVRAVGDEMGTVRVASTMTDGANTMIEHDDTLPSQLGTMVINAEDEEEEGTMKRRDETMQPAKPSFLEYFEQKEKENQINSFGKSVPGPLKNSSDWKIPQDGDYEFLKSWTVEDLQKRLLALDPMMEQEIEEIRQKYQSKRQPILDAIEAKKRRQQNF

[6] = target: Serine/threonine-protein kinase pim-1 (Homo sapiens, UniProt P11309)
dCTP pyrophosphatase 1 = target: T3, dCTP pyrophosphatase 1 (Homo sapiens, UniProt Q9H773)
T3 sequence (Q9H773 whole entry): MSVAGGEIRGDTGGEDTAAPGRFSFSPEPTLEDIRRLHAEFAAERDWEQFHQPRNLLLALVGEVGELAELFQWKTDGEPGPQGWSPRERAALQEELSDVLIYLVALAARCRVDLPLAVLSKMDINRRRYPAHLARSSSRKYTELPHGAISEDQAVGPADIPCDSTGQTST

[7] = target: Cyclin-dependent kinase 6 (Homo sapiens, UniProt Q00534)
[8] = target: MAP kinase-activated protein kinase 2 (Homo sapiens, UniProt P49137)
[9] = target: Glycogen synthase kinase-3 beta (Homo sapiens, UniProt P49841)
[10] = target: DnaJ homolog subfamily A member 1 (Homo sapiens, UniProt P31689)
[11] = target: T4, Phenylalanine--tRNA ligase beta subunit (Homo sapiens, UniProt Q9NSD9)
T4 sequence (Q9NSD9 whole entry): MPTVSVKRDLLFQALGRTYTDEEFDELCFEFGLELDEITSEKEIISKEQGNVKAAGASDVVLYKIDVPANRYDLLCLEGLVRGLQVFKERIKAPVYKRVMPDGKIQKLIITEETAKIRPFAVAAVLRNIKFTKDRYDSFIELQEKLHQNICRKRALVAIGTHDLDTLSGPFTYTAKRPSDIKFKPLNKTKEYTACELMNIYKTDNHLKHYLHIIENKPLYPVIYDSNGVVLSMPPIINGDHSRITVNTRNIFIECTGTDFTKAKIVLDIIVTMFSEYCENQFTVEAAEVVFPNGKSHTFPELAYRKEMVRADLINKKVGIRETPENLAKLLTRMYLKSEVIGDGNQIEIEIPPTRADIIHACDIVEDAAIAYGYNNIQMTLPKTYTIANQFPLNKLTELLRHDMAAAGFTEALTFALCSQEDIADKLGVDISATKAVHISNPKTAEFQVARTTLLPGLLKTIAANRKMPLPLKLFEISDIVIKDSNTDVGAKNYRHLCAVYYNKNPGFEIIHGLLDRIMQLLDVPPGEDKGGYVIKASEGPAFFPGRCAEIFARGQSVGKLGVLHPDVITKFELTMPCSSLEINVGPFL

[12] = target: T5, Mitogen-activated protein kinase kinase kinase 3 (Homo sapiens, UniProt Q99759)
T5 sequence (Q99759 whole entry): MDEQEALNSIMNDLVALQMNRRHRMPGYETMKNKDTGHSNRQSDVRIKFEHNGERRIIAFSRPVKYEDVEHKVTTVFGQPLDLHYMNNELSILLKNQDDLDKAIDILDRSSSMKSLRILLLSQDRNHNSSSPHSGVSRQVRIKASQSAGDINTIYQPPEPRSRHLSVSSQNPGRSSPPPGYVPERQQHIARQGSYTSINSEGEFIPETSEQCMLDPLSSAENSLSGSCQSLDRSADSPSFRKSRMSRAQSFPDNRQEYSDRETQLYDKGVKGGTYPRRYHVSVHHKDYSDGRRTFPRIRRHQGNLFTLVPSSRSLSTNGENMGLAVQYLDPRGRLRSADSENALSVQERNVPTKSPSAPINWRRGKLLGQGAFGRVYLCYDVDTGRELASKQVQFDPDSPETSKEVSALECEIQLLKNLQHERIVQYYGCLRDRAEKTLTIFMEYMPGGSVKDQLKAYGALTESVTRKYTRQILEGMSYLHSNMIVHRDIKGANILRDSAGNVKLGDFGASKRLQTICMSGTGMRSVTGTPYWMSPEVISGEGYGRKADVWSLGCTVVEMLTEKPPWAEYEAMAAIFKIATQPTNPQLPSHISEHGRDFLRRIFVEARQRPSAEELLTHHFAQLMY

Chain of Serine/threonine-protein kinase pim-1 (P11309 whole entry): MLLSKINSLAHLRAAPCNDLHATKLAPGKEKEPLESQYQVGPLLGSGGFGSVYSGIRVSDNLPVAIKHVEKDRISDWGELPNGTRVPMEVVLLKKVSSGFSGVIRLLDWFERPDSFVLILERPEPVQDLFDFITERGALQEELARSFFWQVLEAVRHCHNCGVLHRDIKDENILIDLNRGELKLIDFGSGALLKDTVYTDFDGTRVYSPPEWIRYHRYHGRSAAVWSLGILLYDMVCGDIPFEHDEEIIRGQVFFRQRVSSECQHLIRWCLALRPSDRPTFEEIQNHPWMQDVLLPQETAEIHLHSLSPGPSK
Chain of Ribosomal protein S6 kinase alpha-1 (Q15418 whole entry): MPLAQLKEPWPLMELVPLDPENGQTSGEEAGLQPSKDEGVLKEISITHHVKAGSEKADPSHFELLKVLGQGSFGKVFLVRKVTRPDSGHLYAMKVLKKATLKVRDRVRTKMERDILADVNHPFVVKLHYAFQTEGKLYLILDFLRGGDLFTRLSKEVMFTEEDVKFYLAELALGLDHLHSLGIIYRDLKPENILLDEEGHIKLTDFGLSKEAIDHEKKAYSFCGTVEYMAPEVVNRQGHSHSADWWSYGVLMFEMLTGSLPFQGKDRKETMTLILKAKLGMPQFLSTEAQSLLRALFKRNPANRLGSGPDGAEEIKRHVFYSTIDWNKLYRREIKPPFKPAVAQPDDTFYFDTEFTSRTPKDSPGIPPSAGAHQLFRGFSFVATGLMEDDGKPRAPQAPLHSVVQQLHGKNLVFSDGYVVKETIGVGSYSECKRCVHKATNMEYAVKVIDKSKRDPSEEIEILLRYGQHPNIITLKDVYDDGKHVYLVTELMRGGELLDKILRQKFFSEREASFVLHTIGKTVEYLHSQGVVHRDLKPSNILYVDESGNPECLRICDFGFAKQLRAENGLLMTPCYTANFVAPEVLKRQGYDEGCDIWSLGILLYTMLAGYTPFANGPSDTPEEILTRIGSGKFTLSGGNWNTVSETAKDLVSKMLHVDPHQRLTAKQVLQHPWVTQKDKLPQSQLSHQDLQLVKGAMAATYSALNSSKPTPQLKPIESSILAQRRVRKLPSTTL
Chain of Cyclin-dependent kinase 6 (Q00534 whole entry): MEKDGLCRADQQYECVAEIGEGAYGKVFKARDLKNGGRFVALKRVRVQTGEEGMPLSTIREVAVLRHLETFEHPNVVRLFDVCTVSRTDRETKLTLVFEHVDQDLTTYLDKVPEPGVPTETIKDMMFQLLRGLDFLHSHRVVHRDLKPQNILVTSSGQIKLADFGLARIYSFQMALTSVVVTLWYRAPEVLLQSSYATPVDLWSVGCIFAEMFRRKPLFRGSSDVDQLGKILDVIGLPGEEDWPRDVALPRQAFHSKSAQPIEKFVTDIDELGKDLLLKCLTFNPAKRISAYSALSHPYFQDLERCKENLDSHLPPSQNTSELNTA
Chain of Protein kinase C delta type (Q05655 whole entry, the tested form may be a part): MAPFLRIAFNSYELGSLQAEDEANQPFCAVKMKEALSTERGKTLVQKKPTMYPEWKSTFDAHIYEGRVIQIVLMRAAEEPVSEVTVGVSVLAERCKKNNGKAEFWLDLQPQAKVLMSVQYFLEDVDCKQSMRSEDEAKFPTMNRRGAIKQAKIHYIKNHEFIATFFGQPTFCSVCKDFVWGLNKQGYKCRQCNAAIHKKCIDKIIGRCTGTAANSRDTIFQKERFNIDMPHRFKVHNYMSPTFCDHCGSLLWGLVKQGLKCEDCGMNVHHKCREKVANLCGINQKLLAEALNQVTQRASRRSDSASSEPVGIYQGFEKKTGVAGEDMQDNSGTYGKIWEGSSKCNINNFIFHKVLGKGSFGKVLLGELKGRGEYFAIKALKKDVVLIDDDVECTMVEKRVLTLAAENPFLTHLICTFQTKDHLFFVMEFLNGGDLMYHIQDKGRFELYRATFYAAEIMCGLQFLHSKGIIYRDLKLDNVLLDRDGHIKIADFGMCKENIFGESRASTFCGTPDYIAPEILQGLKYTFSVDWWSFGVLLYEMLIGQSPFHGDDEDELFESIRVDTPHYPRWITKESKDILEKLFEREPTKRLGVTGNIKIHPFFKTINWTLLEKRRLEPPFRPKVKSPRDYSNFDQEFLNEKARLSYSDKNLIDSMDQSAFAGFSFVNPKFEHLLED
Chain of MAP kinase-activated protein kinase 2 (P49137 whole entry): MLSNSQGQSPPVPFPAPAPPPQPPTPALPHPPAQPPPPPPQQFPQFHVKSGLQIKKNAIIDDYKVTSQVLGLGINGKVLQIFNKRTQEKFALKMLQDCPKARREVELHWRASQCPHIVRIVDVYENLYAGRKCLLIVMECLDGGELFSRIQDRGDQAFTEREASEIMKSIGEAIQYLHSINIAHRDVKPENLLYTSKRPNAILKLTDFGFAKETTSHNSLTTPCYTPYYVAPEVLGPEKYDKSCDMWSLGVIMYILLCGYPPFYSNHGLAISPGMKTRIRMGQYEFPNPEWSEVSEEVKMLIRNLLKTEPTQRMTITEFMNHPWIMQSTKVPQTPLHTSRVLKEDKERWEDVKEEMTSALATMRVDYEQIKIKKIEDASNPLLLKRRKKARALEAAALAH
Chain of Cyclin-dependent kinase 4 (P11802 whole entry): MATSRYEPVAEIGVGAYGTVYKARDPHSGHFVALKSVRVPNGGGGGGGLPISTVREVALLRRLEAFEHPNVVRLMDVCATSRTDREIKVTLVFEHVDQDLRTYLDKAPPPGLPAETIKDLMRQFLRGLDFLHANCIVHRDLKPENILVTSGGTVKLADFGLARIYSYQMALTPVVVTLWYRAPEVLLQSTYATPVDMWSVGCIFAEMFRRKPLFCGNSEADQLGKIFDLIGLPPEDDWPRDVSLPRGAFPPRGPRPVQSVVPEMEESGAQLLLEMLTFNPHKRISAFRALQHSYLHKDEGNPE
Chain of Glycogen synthase kinase-3 beta (P49841 whole entry): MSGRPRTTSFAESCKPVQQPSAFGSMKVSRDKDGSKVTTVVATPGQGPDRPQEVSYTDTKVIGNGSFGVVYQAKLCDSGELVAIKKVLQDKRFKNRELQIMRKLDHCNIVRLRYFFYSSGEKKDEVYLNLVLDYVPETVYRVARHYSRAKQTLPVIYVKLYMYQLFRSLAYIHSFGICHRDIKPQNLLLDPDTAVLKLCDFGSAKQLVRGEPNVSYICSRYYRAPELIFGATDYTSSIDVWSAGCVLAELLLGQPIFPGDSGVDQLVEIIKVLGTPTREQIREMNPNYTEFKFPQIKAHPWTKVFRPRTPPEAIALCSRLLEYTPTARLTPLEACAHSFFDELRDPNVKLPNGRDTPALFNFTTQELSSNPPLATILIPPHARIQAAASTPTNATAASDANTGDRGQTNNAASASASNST
Chain of DnaJ homolog subfamily A member 1 (P31689 whole entry): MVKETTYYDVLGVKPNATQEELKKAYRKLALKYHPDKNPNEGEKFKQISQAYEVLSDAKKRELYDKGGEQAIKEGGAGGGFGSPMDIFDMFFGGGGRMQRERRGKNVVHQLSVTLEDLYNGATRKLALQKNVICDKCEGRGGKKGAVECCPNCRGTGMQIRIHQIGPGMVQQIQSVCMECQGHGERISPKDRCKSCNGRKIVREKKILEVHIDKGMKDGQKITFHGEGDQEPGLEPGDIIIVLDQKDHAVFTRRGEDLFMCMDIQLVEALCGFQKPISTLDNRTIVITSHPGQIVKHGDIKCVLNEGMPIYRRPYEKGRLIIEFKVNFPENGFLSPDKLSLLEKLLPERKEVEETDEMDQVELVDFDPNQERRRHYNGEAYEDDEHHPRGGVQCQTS

Kd [1] | Kd [2] | Kd [3] | Kd [4] | Kd [5] | Kd [6] | Kd (dCTP pyrophosphatase 1) | Kd [7] | Kd [8] | Kd [9] | Kd [10] | Kd [11] | Kd [12] | Structure (SMILES)
> 30 µM (inactive) | > 30 µM (inactive) | > 30 µM (inactive) | > 30 µM (inactive) | > 30 µM (inactive) | > 30 µM (inactive) | > 30 µM (inactive) | > 30 µM (inactive) | > 30 µM (inactive) | > 30 µM (inactive) | > 30 µM (inactive) | > 30 µM (inactive) | > 30 µM (inactive) | CNS(=O)(=O)Nc1nccc(Cc2c(C)c3ccc(Oc4ncccn4)cc3oc2=O)c1F [AVUTOMETINIB]
> 30 µM (inactive) | > 30 µM (inactive) | > 30 µM (inactive) | > 30 µM (inactive) | 2.37 µM (active) | > 30 µM (inactive) | > 30 µM (inactive) | > 30 µM (inactive) | > 30 µM (inactive) | > 30 µM (inactive) | > 30 µM (inactive) | > 30 µM (inactive) | > 30 µM (inactive) | O=C(O)[C@]1(Cc2cccc(Nc3nccs3)n2)CC[C@@H](Oc2cccc(Cl)c2F)CC1 [MK-5108]
> 30 µM (inactive) | > 30 µM (inactive) | > 30 µM (inactive) | > 30 µM (inactive) | > 30 µM (inactive) | > 30 µM (inactive) | > 30 µM (inactive) | > 30 µM (inactive) | > 30 µM (inactive) | > 30 µM (inactive) | > 30 µM (inactive) | > 30 µM (inactive) | > 30 µM (inactive) | CC(=O)Nc1cccc(-n2c(=O)n(C3CC3)c(=O)c3c(Nc4ccc(I)cc4F)n(C)c(=O)c(C)c32)c1 [TRAMETINIB]
> 30 µM (inactive) | > 30 µM (inactive) | > 30 µM (inactive) | > 30 µM (inactive) | > 30 µM (inactive) | > 30 µM (inactive) | > 30 µM (inactive) | > 30 µM (inactive) | > 30 µM (inactive) | > 30 µM (inactive) | > 30 µM (inactive) | > 30 µM (inactive) | > 30 µM (inactive) | CO[C@H]1C[C@@H]2CC[C@@H](C)[C@@](O)(O2)C(=O)C(=O)N2CCCC[C@H]2C(=O)O[C@H]([C@H](C)C[C@@H]2CC[C@@H](OCCO)[C@H](OC)C2)CC(=O)[C@H](C)/C=C(\C)[C@@H](O)[C@@H](OC)C(=O)[C@H](C)C[C@H](C)/C=C/C=C/C=C/1C [EVEROLIMUS]
> 30 µM (inactive) | > 30 µM (inactive) | > 30 µM (inactive) | > 30 µM (inactive) | > 30 µM (inactive) | > 30 µM (inactive) | > 30 µM (inactive) | > 30 µM (inactive) | > 30 µM (inactive) | > 30 µM (inactive) | > 30 µM (inactive) | > 30 µM (inactive) | > 30 µM (inactive) | C[C@@H](Nc1cc(F)cc(F)c1)c1cc(C(=O)N(C)C)cc2c(=O)cc(N3CCOCC3)oc12 [AZD-8186]
> 30 µM (inactive) | > 30 µM (inactive) | > 30 µM (inactive) | > 30 µM (inactive) | > 30 µM (inactive) | > 30 µM (inactive) | > 30 µM (inactive) | > 30 µM (inactive) | > 30 µM (inactive) | > 30 µM (inactive) | > 30 µM (inactive) | > 30 µM (inactive) | > 30 µM (inactive) | CC(C)Nc1cc(-c2c[nH]c(C(=O)N[C@H](CO)c3cccc(Cl)c3)c2)c(Cl)cn1 [ULIXERTINIB]
> 30 µM (inactive) | > 30 µM (inactive) | > 30 µM (inactive) | > 30 µM (inactive) | > 30 µM (inactive) | > 30 µM (inactive) | > 30 µM (inactive) | > 30 µM (inactive) | > 30 µM (inactive) | > 30 µM (inactive) | > 30 µM (inactive) | > 30 µM (inactive) | > 30 µM (inactive) | Cn1cc(-c2ccc3nnc(C(F)(F)c4ccc5ncccc5c4)n3n2)cn1 [JNJ-38877605]
> 30 µM (inactive) | > 30 µM (inactive) | > 30 µM (inactive) | > 30 µM (inactive) | > 30 µM (inactive) | > 30 µM (inactive) | > 30 µM (inactive) | > 30 µM (inactive) | 0.019 µM | > 30 µM (inactive) | > 30 µM (inactive) | > 30 µM (inactive) | > 30 µM (inactive) | C[C@@H]1CN(Cc2ccc(F)cc2)[C@@H](C)CN1C(=O)c1cc2c(C(=O)C(=O)N(C)C)cn(C)c2cc1Cl [TALMAPIMOD]
> 30 µM (inactive) | > 30 µM (inactive) | > 30 µM (inactive) | 0.033 µM (active) | > 30 µM (inactive) | > 30 µM (inactive) | > 30 µM (inactive) | > 30 µM (inactive) | > 30 µM (inactive) | > 30 µM (inactive) | > 30 µM (inactive) | > 30 µM (inactive) | > 30 µM (inactive) | C1=C/COCc2cc(ccc2OCCN2CCCC2)Nc2nccc(n2)-c2cccc(c2)COC/1 [PACRITINIB]

Structure (SMILES) | Kd [1] | Kd [2] | Kd [3] | Kd [4] | Kd [5] | Kd [6] | Kd (dCTP pyrophosphatase 1) | Kd [7] | Kd [8] | Kd [9] | Kd [10] | Kd [11] | Kd [12]
C=CC(=O)N1CCC(Oc2cc3c(Nc4ccc(Cl)c(Cl)c4F)ncnc3cc2OC)CC1 [POZIOTINIB] | > 30 µM (inactive) | > 30 µM (inactive) | > 30 µM (inactive) | > 30 µM (inactive) | > 30 µM (inactive) | > 30 µM (inactive) | > 30 µM (inactive) | > 30 µM (inactive) | > 30 µM (inactive) | > 30 µM (inactive) | > 30 µM (inactive) | > 30 µM (inactive) | > 30 µM (inactive)
CN1CC[C@@H](c2c(O)cc(O)c3c(=O)cc(-c4ccccc4Cl)oc23)[C@@H]1CO | > 30 µM (inactive) | > 30 µM (inactive) | 2.39 µM (active) | > 30 µM (inactive) | > 30 µM (inactive) | > 30 µM (inactive) | > 30 µM (inactive) | > 30 µM (inactive) | > 30 µM (inactive) | 2.72 µM (active) | > 30 µM (inactive) | > 30 µM (inactive) | > 30 µM (inactive)
